The values below come from patent publication EP4813463A2, “TYK2 INHIBITORS AND COMPOSITIONS AND METHODS THEREOF” (Lynk Pharmaceuticals Co. Ltd., priority 2023, dated 2024).

Some results are limits rather than exact numbers.

T1 sequence (P29597 589-875 limits assumed): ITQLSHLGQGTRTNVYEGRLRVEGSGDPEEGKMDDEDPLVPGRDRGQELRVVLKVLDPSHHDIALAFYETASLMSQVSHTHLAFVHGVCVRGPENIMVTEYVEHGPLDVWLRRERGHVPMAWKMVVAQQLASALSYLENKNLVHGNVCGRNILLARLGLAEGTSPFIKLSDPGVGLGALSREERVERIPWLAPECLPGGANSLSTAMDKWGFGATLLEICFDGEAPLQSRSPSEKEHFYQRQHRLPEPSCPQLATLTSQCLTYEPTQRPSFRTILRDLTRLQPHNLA

One experiment has as its target T1, TYK2-JH2 domain (Homo sapiens, UniProt P29597).
T1 construct: JAK1-JH2 domain or TYK2-JH2 domain enzyme in assay buffer
In words: Binding activity test for JH2 domain of TYK2 (Tb-antibody/tracer FRET). Particulars: JH2 domain enzyme; 60 min at 25°C, then 4°C overnight; read-out: TYK2 JH2 Binding IC50. As for the experimental part: Binding Activity test for JH2 domain of JAK1 and TYK2 […] Add 8μL/well in echo source plate, echo will add 75nL/well with 3-fold serial dilution for 11 points in assay plate. 75nL DMSO for high control and low control. […] For low control, add 5μL/well assay buffer. And then spin down at 1000rpm and centrifuge for 30 seconds. After enzyme system prepared, add 5μL of Tb-antibody solution into each well of assay plate. Spin down at 1000 rpm and centrifuge for 30sec. After Tb-antibody added, also add 5μL of tracer into the assay plate. Spin down at 1000rpm and centrifuge for 30sec. Incubate for […] at 25°C firstly and then continue to incubate the plate at 4°C overnight. Read by envision in FRET mode. The Luminescence value was recorded by a multi-label reader Envision (PerkinElmer). […] Table 2. IC50 on JH2 domain activity (nM)
With `CCOC(c1ccc2c(c(Nc3cc(NC(=O)C4CC4)ncc3C(=O)OC)nn2C)c1OC)C(F)(F)F` (racemic) [Example 106, Methyl 6-(cyclopropanecarboxamido)-4-((5-(1-ethoxy-2,2,2-trifluoroethyl)-4-methoxy-1-methyl-1H-indazol-3-yl)amino)nicotinate], the half-inhibitory concentration (IC50) was 1.31 nM.
As for `COC(=O)c1c(Nc2nn(C)c3ccc(C(OC)C(F)(F)F)c(OC)c23)cc(NC(=O)C2CC2)nc1F` (single isomer, unassigned) [Example 98A, Methyl (R*)-6-(cyclopropanecarboxamido)-2-fluoro-4-((4-methoxy-1-methyl-5-(2,2,2-trifluoro-1-methoxyethyl)-1H-indazol-3-yl)amino)nicotinate], the IC50 is greater than 298 nM.
Consider `COC(=O)c1c(Nc2nn(C)c3ccc(C(OC)C(F)(F)F)c(OC)c23)cc(NC(=O)C2CC2)nc1F` (single isomer, unassigned) [Example 98B, Methyl (S*)-6-(cyclopropanecarboxamido)-2-fluoro-4-((4-methoxy-1-methyl-5-(2,2,2-trifluoro-1-methoxyethyl)-1H-indazol-3-yl)amino)nicotinate], for which the IC50 was found to be 3.88 nM.
As to `CCOC(c1ccc2c(c(Nc3cc(NC(=O)C4CC4)ncc3C(=O)OC)nn2C)c1OC)C(F)(F)F` (single isomer, unassigned) [Example 106A, Methyl (R*)-6-(cyclopropanecarboxamido)-4-((5-(1-ethoxy-2,2,2-trifluoroethyl)-4-methoxy-1-methyl-1H-indazol-3-yl)amino)nicotinate], the half-maximal inhibitory concentration (IC50) was found to be 4.31 nM.
As for `COC(=O)c1cnc(NC(=O)C2CC2)cc1Nc1nn(C)c2ccc(C(OC)C(C)(F)F)c(OC)c12` (single isomer, unassigned) [Example 115B, Methyl (R*)-6-(cyclopropanecarboxamido)-4-((5-(2,2-difluoro-1-methoxypropyl)-4-methoxy-1-methyl-1H-indazol-3-yl)amino)nicotinate], the IC50 was 1.22 nM.
`[2H]C([2H])([2H])OC(c1ccc2c(c(Nc3cc(NC(=O)C4CC4)ncc3C(=O)OC)nn2CCOC)c1OC)C(F)(F)F` (single isomer, unassigned) [Example 157B, Methyl (R*)-6-(cyclopropanecarboxamido)-4-((4-methoxy-1-(2-methoxyethyl)-5-(2,2,2-trifluoro-1-methoxyethyl)-1H-indazol-3-yl)amino)nicotinate]: the half-maximal inhibitory concentration (IC50) was determined as 1.41 nM.
Regarding `[2H]C([2H])([2H])O[C@H](c1ccc2c(c(Nc3cc(NC(=O)C4CC4)ncc3C(=O)OC)nn2C([2H])([2H])[2H])c1OC)C(F)(F)F` [Example 53A, Methyl (R)-6-(cyclopropanecarboxamido)-4-((4-methoxy-1-(methyl-d3)-5-(2,2,2-trifluoro-1-(methoxy-d3)ethyl)-1H-indazol-3-yl)amino)nicotinate], the IC50 worked out at 0.627 nM.
For `[2H]C([2H])([2H])NC(=O)c1cnc(NC(=O)C2CC2)cc1Nc1cnn2ccc(C)c(NC)c12` [Example 97, 6-(Cyclopropanecarbonylamino)-4-[[5-methyl-4-(methylamino)pyrazolo [1,5-a]pyridin-3-yl]amino]-N-(trideuteriomethyl)pyridine-3-carboxamide], the concentration for half-maximal inhibition (IC50) is 2.37 nM.
Turning to `COC(=O)c1cnc(NC(=O)C2CC2)cc1Nc1cnn2ccc(C3CCCO3)c(OC)c12` (stereo not shown) [Example 99, Methyl 6-(cyclopropanecarboxamido)-4-((4-methoxy-5-(tetrahydrofuran-2-yl)pyrazolo[1,5-a]pyridin-3-yl)amino)nicotinate], the half-inhibitory concentration (IC50) came to 1.79 nM.
Take `COC(=O)c1nnc(NC(=O)C2CC2)cc1Nc1nn(C)c2ccc(C(OC)C(F)(F)F)c(OC)c12` (stereo not shown) [Example 101, Methyl 6-(cyclopropanecarboxamido)-4-((4-methoxy-1-methyl-5-(2,2,2-trifluoro-1-methoxyethyl)-1H-indazol-3-yl)amino)pyridazine-3-carboxylate]: the IC50 was greater than 298 nM.
On the same count and under the same terms, for `COC(=O)c1cnc(NC(=O)C2CC2)cc1Nc1ncn2ccc(C)c(OC)c12` [Example 103, Methyl 6-(cyclopropanecarboxamido)-4-((8-methoxy-7-methylimidazo[1,5-a]pyridin-1-yl)amino)nicotinate] the value was 5.84 nM; for `COC(=O)c1cnc(NC(=O)C2CC2)cc1Nc1nn(COCC[Si](C)(C)C)c2ccc(C(OC)C(F)(F)F)c(OC)c12` (stereo not shown) [Example 104, Methyl 6-(cyclopropanecarboxamido)-4-((4-methoxy-5-(2,2,2-trifluoro-1-methoxyethyl)-1-((2-(trimethylsilyl)ethoxy)methyl)-1H-indazol-3-yl)amino)nicotinate], 13.7 nM; for `COC(=O)c1cnc(NC(=O)C2CC2)cc1Nc1nccc2c1N(C)[C@@H](C)c1nn(C)nc1-2` [Example 109, Methyl (S)-6-(cyclopropanecarboxamido)-4-((2,4,5-trimethyl-4,5-dihydro-2H-[1,2,3]triazolo[4,5-c][1,7]naphthyridin-6-yl)amino)nicotinate], 0.836 nM.
In the case of `COC(=O)c1cnc(NC(=O)C2CC2)cc1Nc1ncn2ccc(C(OC)C(F)(F)F)c(OC)c12` (stereo not shown) [Example 110, Methyl 6-(cyclopropanecarboxamido)-4-((8-methoxy-7-(2,2,2-trifluoro-1-methoxyethyl)imidazo[1,5-a]pyridin-1-yl)amino)nicotinate], the IC50 came to 2.47 nM.
Turning to `COC(=O)c1cnc(NC(=O)C2CC2)cc1Nc1nn(C)c2ccc(C(OC)C(C)C)c(OC)c12` (stereo not shown) [Example 118, Methyl 6-(cyclopropanecarboxamido)-4-((4-methoxy-5-(1-methoxy-2-methylpropyl)-1-methyl-1H-indazol-3-yl)amino)nicotinate], the IC50 is 0.943 nM.
On the same count and under the same terms, the same measure for `COC(=O)c1cnc(NC(=O)C2CC2)cc1Nc1nn(C2CC2)c2ccc(C(OC)C(F)(F)F)c(OC)c12` (stereo not shown) [Example 119, Methyl 6-(cyclopropanecarboxamido)-4-((1-cyclopropyl-4-methoxy-5-(2,2,2-trifluoro-1-methoxyethyl)-1H-indazol-3-yl)amino)nicotinate]: 0.308 nM; for `CCC(OC)c1ccc2c(c(Nc3cc(NC(=O)C4CC4)ncc3C(=O)OC)nn2C)c1OC` (stereo not shown) [Example 121, Methyl 6-(cyclopropanecarboxamido)-4-((4-methoxy-5-(1-methoxypropyl)-1-methyl-1H-indazol-3-yl)amino)nicotinate]: 0.405 nM; for `COC(=O)c1cnc(NC(=O)C2CC2)cc1Nc1c2c(OC)c(C(C)C(F)(F)F)ccc2nn1C` (stereo not shown) [Example 124, Methyl 6-(cyclopropanecarboxamido)-4-((4-methoxy-2-methyl-5-(1,1,1-trifluoropropan-2-yl)-2H-indazol-3-yl)amino)nicotinate]: 90.3 nM.
Turning to `COC(=O)c1cnc(NC(=O)C2CC2)cc1Nc1nn(C)c2ccc(C#N)c(OC)c12` [Example 126, Methyl 4-((5-cyano-4-methoxy-1-methyl-1H-indazol-3-yl)amino)-6-(cyclopropanecarboxamido)nicotinate], the concentration for half-maximal inhibition (IC50) was found to be 1.79 nM.
For the compound `COC(=O)c1cnc(NC(=O)C2CC2)cc1Nc1ccn2ncc(C(OC)C(F)(F)F)c2c1OC` (stereo not shown) [Example 131, Methyl 6-(cyclopropanecarboxamido)-4-((4-methoxy-3-(2,2,2-trifluoro-1-methoxyethyl)pyrazolo[1,5-a]pyridin-5-yl)amino)nicotinate], the concentration for half-maximal inhibition (IC50) was 12.7 nM.
For `COC(=O)c1cnc(NC(=O)C2CC2)cc1Nc1nn(CC#N)c2ccc(C(OC)C(F)(F)F)c(OC)c12` (stereo not shown) [Example 134, Methyl 4-((1-(cyanomethyl)-4-methoxy-5-(2,2,2-trifluoro-1-methoxyethyl)-1H-indazol-3-yl)amino)-6-(cyclopropanecarboxamido)nicotinate], the 50% inhibitory concentration (IC50) worked out at 1.52 nM.
On to `COC(=O)c1cnc(NC(=O)C2CC2)cc1Nc1nn(C)c2cnc(C(OC)C(F)(F)F)c(OC)c12` (stereo not shown) [Example 138, Methyl 6-(cyclopropanecarbonylamino)-4-[[4-methoxy-1-methyl-5-(2,2,2-trifluoro-1-methoxy-ethyl)pyrazolo[3,4-c]pyridin-3-yl]amino]pyridine-3-carboxylate], for which the 50% inhibitory concentration (IC50) amounted to 1.22 nM.
For the compound `CCC(O)c1cnc(NC(=O)C2CC2)cc1Nc1nn(C)c2ccc([C@H](OC)C(F)(F)F)c(OC)c12` (stereo partly drawn) [Example 143, N-(5-(1-hydroxypropyl)-4-((4-methoxy-1-methyl-5-((S)-2,2,2-trifluoro-1-methoxyethyl)-1H-indazol-3-yl)amino)pyridin-2-yl)cyclopropanecarboxamide], the concentration for half-maximal inhibition (IC50) was 34.7 nM.

The same experiment, now with this note: read-out: TYK2 JH2 Binding IC50; JH2 domain enzyme; 60 min at 25°C, then 4°C overnight.
For `COC(=O)c1cnc(NC(=O)[C@@H]2C[C@@H]2F)cc1Nc1nn(C)c2ccc(C(O)C(F)(F)F)c(OC)c12` (single isomer, unassigned) [Example 122B, Methyl 6-((1S,2S)-2-fluorocyclopropane-1-carboxamido)-4-((4-methoxy-1-methyl-5-((R*)-2,2,2-trifluoro-1-hydroxyethyl)-1H-indazol-3-yl)amino) nicotinate], the half-maximal inhibitory concentration (IC50) was 0.733 nM.
Same read-out and setting: for `[2H]C([2H])([2H])OC(=O)c1cnc(NC(=O)C2CC2)cc1Nc1ncc2ccn(C([2H])([2H])C([2H])([2H])[2H])c2c1OC([2H])([2H])[2H]` [Example 61, Methyl-d3 6-(cyclopropanecarboxamido)-4-((1-(ethyl-d5)-7-(methoxy-d3)-1H-pyrrolo[3,2-c]pyridin-6-yl)amino) nicotinate] the value was 1.36 nM.

A word on the IC50: it is the concentration that inhibits the measured activity by half.
